Data: patent US20200360405A1, “COMPOSITIONS AND METHODS FOR REDUCING LOCAL AND SYSTEMIC RISKS OF ENVENOMATION” (THE HENRY M. JACKSON FONDATION FOR THE ADVANCEMENT OF …, priority 2017, published 2020)

Columns and labels:
[1] = biological target: V. russelli crude venom PLA2; experiment: Phospholipase A2 activity assay (EnzChek), V. russelli crude venom; assay type: biochemical, Vipera russelli; settings: for IC50 / PLA2 ≥90% inhibition (concentration), V. russelli venom: 0.2 μg venom, 10 minute time point, Example 1; for Effect on V. russelli venom PLA2 activity (in words): venom pre-incubated 5-10 minutes with increasing concentrations, Example 2
Protocol: (§1) EnzChek® Phospholipase A 2 assay kits were used according to the manufacturer's recommendations. Briefly, equal volumes of venom solutions were incubated with PLA2 substrate and fluorometric analysis was performed over the course of 20 minutes. Venom activity was determined by creating a standard curve based upon PLA2 from honey bee venom.
(§2) For inhibition experiments, 0.4 μg N. kaouthia or 0.2 μg V. russelli venom was pre-incubated with the specified spreading factor inhibitor(s) for 5-10 minutes before adding the reaction to an equal volume of PLA2 substrate. Fluorometric analysis was performed over 20 minutes, with the 10 minute time point values being used to determine the percent inhibition. Background values were subtracted from all samples, and data was normalized to the venom-only controls. Excitation and emission wavelengths for these experiments were 485(20) nm and 528(20) nm, respectively.
(§3) Data are shown as the mean and standard deviation (SD) of at least duplicate readings. The half maximal inhibitory concentration (IC50) values were determined using GraphPad Prism. Table 1 summarizes the inhibitory activity of various spreading factor inhibitors for N. kaouthia and V. russelli crude venom extracts.
(§4) Snake venom samples were incubated with increasing concentrations of sodium aurothiomalate and/or doxycycline for 5-10 minutes prior to assaying the venom hyaluronidase, gelatinase, and PLA2 activities. As observed in Example 1, sodium aurothiomalate inhibited N. kaouthia and V. russeiii venom hyaluronidase activities, whereas doxycycline inhibited the venom gelatinase and PLA2 activities.

[2] = biological target: N. kaouthia crude venom PLA2; experiment: Phospholipase A2 activity assay (EnzChek), N. kaouthia crude venom; assay type: biochemical, Naja naja kaouthia; settings: for IC50 / PLA2 ≥90% inhibition (concentration), N. kaouthia venom: 0.4 μg venom, 10 minute time point, Example 1; for Effect on N. kaouthia venom PLA2 activity (in words): venom pre-incubated 5-10 minutes with increasing concentrations, Example 2
Protocol: as §1, §2, §3, §4

[3] = biological target: N. kaouthia crude venom hyaluronidase; experiment: Hyaluronidase activity assay, N. kaouthia crude venom; assay type: biochemical, Naja naja kaouthia; settings: for Effect on N. kaouthia venom hyaluronidase activity (in words): venom pre-incubated 5-10 minutes with increasing concentrations, Example 2
Protocol: (§5) Hyaluronidase activity was assessed using the Enzymatic Assay of Hyaluronidase (3.2.1.35) protocol from Sigma Aldrich. Briefly, equal volumes of venom were incubated with 0.03% hyaluronic acid solution (0.03% (w/v) hyaluronic acid in 300 mM sodium phosphate (approximately pH 5.35)) for 1.5 hours at 37° C. A reaction aliquot was then added to a 5-fold volume of acidic albumin solution (24 mM sodium acetate, 70 mM acetic acid, 0.1% BSA adjusted to approximately pH 3.75), allowed to stand for 10 minutes, and then absorbance at 600 nm was measured. Data was converted to percent transmission (% T) and adjusted for background signals. Venom hyaluronidase activities were determined by creating a standard curve with bovine testes hyaluronidase.
(§6) For inhibition experiments, 6.75 μg N. kaouthia or 15 μg V. russelli venom was pre-incubated with the specified spreading factor inhibitor(s) for 5-10 minutes before adding an equal volume of the reaction to the hyaluronic acid solution. Data was converted to % T, adjusted for background signals, and then normalized to the venom-only controls.
as §3, §4

[4] = biological target: V. russelli crude venom hyaluronidase; experiment: Hyaluronidase activity assay, V. russelli crude venom; assay type: biochemical, Vipera russelli; settings: for Effect on V. russelli venom hyaluronidase activity (in words): venom pre-incubated 5-10 minutes with increasing concentrations, Example 2
Protocol: as §5, §6, §3, §4

[5] = biological target: V. russelli crude venom gelatinase; experiment: Gelatinase activity assay (EnzChek), V. russelli crude venom; assay type: biochemical, Vipera russelli
Protocol: (§7) EnzChek® Gelatinase/Collagenase assay kits were used according to the manufacturer's recommendations. Briefly, equal volumes of venom solutions were incubated with 1.0 mg/mL DQ gelatin and fluorometric analysis was performed for at least three hours, using excitation and emission wavelengths of 485(20) nm and 528(20) nm, respectively. Venom activity was determined by creating a standard curve with Clostridium histolyticum collagenase activity.
(§8) For inhibition experiments, 30 μg N. kaouthia or V. russelli venom was pre-incubated with the specified spreading factor inhibitor(s) for 5-10 minutes before adding an equal volume of the reaction to the 1.0 mg/mL DQ gelatin solution. Fluorometric readings were measured over the course of five hours, with the five hour time points being used to determine the percent inhibition. Data was adjusted for background signals and then normalized to the venom-only controls.
as §3, §4

[6] = biological target: N. kaouthia crude venom gelatinase; experiment: Gelatinase activity assay (EnzChek), N. kaouthia crude venom; assay type: biochemical, Naja naja kaouthia
Protocol: as §7, §8, §3, §4

[7] = 6.75 μg venom, pre-incubation 5-10 min, Example 1
[8] = 15 μg venom, pre-incubation 5-10 min, Example 1
[9] = 30 μg venom, five hour time point, Example 1
[10] = venom pre-incubated 5-10 minutes with increasing concentrations, Example 2
[11] = asterisk: data obtained according to Example 2, five hour time point

Structure (SMILES): CC1=C(CC/C(C)=C/CCC2=CC[C@H](C3=CC(=O)O[C@H]3O)O[C@H]2O)C(C)(C)CCC1 [Manoalide]
- IC50 [1]: 31.4 µM
- PLA2 ≥90% inhibition (concentration), V. russelli venom [1]: 1000 µM
- IC50 [2]: 777 µM
- PLA2 ≥90% inhibition (concentration), N. kaouthia venom [2]: >1000 µM

Structure (SMILES): CC(=O)N[C@@H](CS)C(=O)O [N-acetyl-L-cysteine]
- Hyaluronidase IC50, N. kaouthia venom [3, 7]: 4503 µg/mL
- Hyaluronidase ≥90% inhibition (concentration), N. kaouthia venom [3, 7]: 4.8 mg/mL
- Effect on N. kaouthia venom hyaluronidase activity (in words) [3]: inhibited
- Hyaluronidase IC50, V. russelli venom [4, 8]: ~4989 µg/mL
- Hyaluronidase ≥90% inhibition (concentration), V. russelli venom [4, 8]: 6.0 to 9.6 mg/mL
- Effect on V. russelli venom hyaluronidase activity (in words) [4]: inhibited
- Enhancement of PLA2 activities in V. russelli venom ([1]; N-acetyl-L-cysteine alone): 3-4 fold
- Effect on V. russelli venom PLA2 activity (in words) [1]: consistently enhanced
- Gelatinase IC50, V. russelli venom [5, 9]: 1870 µg/mL
- Gelatinase ≥90% inhibition (concentration), V. russelli venom [5, 9]: 2.31 mg/mL
- Effect on V. russelli venom gelatinase activity (in words) [5, 10]: inhibited
- Gelatinase IC50, N. kaouthia venom [6, 9]: 1850 µg/mL
- Gelatinase ≥90% inhibition (concentration), N. kaouthia venom [6, 9]: 1.32 mg/mL
- Effect on N. kaouthia venom gelatinase activity (in words) [6, 10]: inhibited
- Effect on N. kaouthia venom PLA2 activity (in words) [2]: consistently enhanced

Structure (SMILES): O=C([O-])CC([S-])C(=O)[O-].[Au+].[Na+].[Na+] (stereo not drawn) [Sodium aurothiomalate, sodium aurothiomalate]
- Hyaluronidase ≥90% inhibition (concentration), N. kaouthia venom [3, 7]: 136.30 µM
- IC50 [3, 7]: 42 µM
- Effect on N. kaouthia venom hyaluronidase activity (in words) [3]: inhibited
- Hyaluronidase ≥90% inhibition (concentration), V. russelli venom [4, 8]: 373.25 µM
- IC50 [4, 8]: 147 µM
- Effect on V. russelli venom hyaluronidase activity (in words) [4]: inhibited
- Effect on V. russelli venom PLA2 activity (in words) [1]: moderate, but statistically significant increase
- Gelatinase ≥90% inhibition (concentration), N. kaouthia venom [6, 11]: >208 µM
- IC50 [6, 11]: 47 ± 30.4 µM
- Effect on N. kaouthia venom PLA2 activity (in words) [2]: moderate, but statistically significant increase

Structure (SMILES): Cc1ccc(C(=O)Nc2ccc(S(=O)(=O)O)c3cc(S(=O)(=O)O)cc(S(=O)(=O)O)c23)cc1NC(=O)c1cccc(NC(=O)Nc2cccc(C(=O)Nc3cc(C(=O)Nc4ccc(S(=O)(=O)O)c5cc(S(=O)(=O)O)cc(S(=O)(=O)O)c45)ccc3C)c2)c1 [Suramin]
- IC50 [1]: 2010 µM
- PLA2 ≥90% inhibition (concentration), V. russelli venom [1]: 12500 µM
- IC50 [2]: 1520 ± 528 µM
- PLA2 ≥90% inhibition (concentration), N. kaouthia venom [2]: 12500 µM
